This note sets out measurements from article PMC8757360 (ACS Omega, 2021).

One data set concerns A549. The data set can be described thus: MTT cytotoxicity, A549. To be noted: Homo sapiens, A549, 72 h, read-out: IC50 A549. The class given is cell-based.
The next data set has as its system T47D. The data set can be described thus: MTT cytotoxicity, T47D. The settings on record: for IC50: Homo sapiens, T47D, 72 h, read-out: IC50 T47D; for cytotoxic effect, fold more potent than berberine: T47D cells, versus positive control berberine.
The test system of the next data set is MDA-MB-231. The data set can be described thus: MTT cytotoxicity, MDA-MB-231. The class given is cell-based. The settings on record: Homo sapiens, MDA-MB-231, 72 h, read-out: IC50 MDA-MB-231.
The next data set has as its system MCF-7. The data set can be described thus: MTT cytotoxicity, MCF-7. To be noted: for IC50: Homo sapiens, MCF7, 72 h, read-out: IC50 MCF-7.
A further data set concerns HEK-293T-ACE2h cells. The settings on record: human.
For data set [1], the system named is SARS-CoV-2 spike pseudovirus. Type of data set: cell-based.
The next data set has as its target SARS-CoV-2 spike RBD (Severe acute respiratory syndrome coronavirus 2, UniProt P0DTC2). The data set can be described thus: biochemical. The class given is binding.
The next data set deals with human ACE2 (Homo sapiens, UniProt Q9BYF1). The data set can be described thus: biochemical. Type of data set: binding.
For data set [2], the system named is MCF-7, T47D, MDA-MB-231, and A549. Kind of data set: MTT cytotoxicity, range stated over four cancer cell lines. Type of data set: cell-based. The settings on record: Homo sapiens, 72 h, read-out: IC50 values ranging over four cancer cell lines.

Some results are limits rather than exact numbers.

Sequence of human ACE2 (Q9BYF1 18-805): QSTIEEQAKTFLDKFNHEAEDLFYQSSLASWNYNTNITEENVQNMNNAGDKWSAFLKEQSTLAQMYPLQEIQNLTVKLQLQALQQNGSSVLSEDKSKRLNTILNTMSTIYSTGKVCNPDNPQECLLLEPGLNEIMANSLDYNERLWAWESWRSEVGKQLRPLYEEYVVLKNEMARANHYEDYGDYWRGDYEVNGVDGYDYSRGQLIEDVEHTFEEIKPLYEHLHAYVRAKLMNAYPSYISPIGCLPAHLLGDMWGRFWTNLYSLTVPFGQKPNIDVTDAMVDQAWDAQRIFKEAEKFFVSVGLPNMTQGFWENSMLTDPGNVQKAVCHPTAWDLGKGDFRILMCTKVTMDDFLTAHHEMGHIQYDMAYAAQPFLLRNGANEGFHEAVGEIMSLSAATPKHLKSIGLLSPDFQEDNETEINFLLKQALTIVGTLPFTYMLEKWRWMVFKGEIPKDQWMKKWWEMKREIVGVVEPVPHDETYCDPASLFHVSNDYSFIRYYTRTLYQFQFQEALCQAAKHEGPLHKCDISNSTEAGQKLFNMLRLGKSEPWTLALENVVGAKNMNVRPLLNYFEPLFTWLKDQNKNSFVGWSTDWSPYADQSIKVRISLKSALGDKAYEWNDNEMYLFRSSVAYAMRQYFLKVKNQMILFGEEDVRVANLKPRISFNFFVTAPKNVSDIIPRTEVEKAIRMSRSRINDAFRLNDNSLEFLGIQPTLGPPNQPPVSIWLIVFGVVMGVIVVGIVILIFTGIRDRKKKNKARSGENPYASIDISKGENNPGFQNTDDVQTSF

Broadly, the IC50 is the concentration that inhibits the measured activity by half. Turning to `COC(=O)c1ccc2nc(-c3ccccc3)c(-c3ccccc3)nc2c1` [4af, Methyl 2,3-diphenylquinoxaline-6-carboxylate], the IC50 with A549, in the data set with T47D, with MDA-MB-231 and with MCF-7 was above 50 µM each time. The “CC0 (maximum nontoxic concentration)” value in the data set with HEK-293T-ACE2h cells was found to be 100 µM. In addition, in the data set with HEK-293T-ACE2h cells, the “TC50 (concentration that caused 50% cells' death)” value is above 100 µM.
For `Brc1ccc(-c2nc3ccccc3nc2-c2ccccc2)cc1` [4ja, 2-(4-Bromophenyl)-3-phenylquinoxaline], in the data set with HEK-293T-ACE2h cells, the “CC0 (maximum nontoxic concentration)” value was found to be 25 µM and the “TC50 (concentration that caused 50% cells' death)” value is above 100 µM.
With `c1ccc(-c2nc3ccccc3nc2-c2ccsc2)cc1` [4ra, 2-Phenyl-3-(thiophen-3-yl)quinoxaline], the IC50 in the data set on A549, in the data set on T47D, in the data set on MDA-MB-231 and in the data set with MCF-7 was above 50 µM each time. Also, the “CC0 (maximum nontoxic concentration)” value in the data set on HEK-293T-ACE2h cells was 62.5 µM. Besides, the “TC50 (concentration that caused 50% cells' death)” value in the data set on HEK-293T-ACE2h cells stood at 337.06 ± 15.49 µM.
As a reminder, the Kd is the concentration at which binding is half-saturated. Consider `Clc1ccc2nc(-c3ccccc3)c(-c3ccccc3)nc2c1` [4ad, 6-Chloro-2,3-diphenylquinoxaline], for which the IC50 in the data set on A549, in the data set on T47D, with MDA-MB-231 and with MCF-7 was above 50 µM in each case. Besides, the “SI (selectivity index, TC50/IC50)” value in data set [1] is above 23.49. Further, the figures for the Kd at SARS-CoV-2 spike RBD and at human ACE2 were 8.16 ± 1.34 µM and 4.02 ± 2.03 µM, respectively. For the same compound, in the data set with HEK-293T-ACE2h cells, the “CC0 (maximum nontoxic concentration)” value was above 25 µM. Besides, the “TC50 (concentration that caused 50% cells' death)” value in the data set with HEK-293T-ACE2h cells is above 500 µM.
As to `c1ccc(-c2nc3ccccc3nc2-c2ccc3ccccc3c2)cc1` [4pa, 2-(Naphthalen-2-yl)-3-phenylquinoxaline], the IC50 with A549, in the data set on T47D, in the data set on MDA-MB-231 and in the data set on MCF-7 was above 50 µM each time. Besides, the “CC0 (maximum nontoxic concentration)” value with HEK-293T-ACE2h cells is above 25 µM. The “TC50 (concentration that caused 50% cells' death)” value with HEK-293T-ACE2h cells is above 250 µM.
Take `c1ccc(-c2nc3ccccc3nc2-c2ccccc2)cc1` [4aa, 2,3-Diphenylquinoxaline]: the IC50 in the data set with A549 was 26.3 ± 1.96 µM; in the data set on T47D, 11.4 ± 1.17 µM; in the data set with MDA-MB-231, 28.6 ± 1.85 µM; with MCF-7, 16.7 ± 1.34 µM; in data set [2] it was 6.25 to 28.6 µM. Besides, the Kd was 1000 ± 761 µM on SARS-CoV-2 spike RBD and 5890 ± 1670 µM at human ACE2. The “CC0 (maximum nontoxic concentration)” value in the data set with HEK-293T-ACE2h cells was above 250 µM. In addition, in the data set with HEK-293T-ACE2h cells, the “TC50 (concentration that caused 50% cells' death)” value was above 25 µM.
For the compound `COc1ccc(-c2nc3ccccc3nc2-c2ccccc2)cc1` [4ca, 2-(4-Methoxyphenyl)-3-phenylquinoxaline], the IC50 is above 50 µM in the data set with A549, above 50 µM in the data set with T47D, 48.8 ± 1.01 µM in the data set on MDA-MB-231 and above 50 µM in the data set on MCF-7. In data set [1], the “SI (selectivity index, TC50/IC50)” value is recorded as 14.05. Besides, the figures for the equilibrium dissociation constant (Kd) at SARS-CoV-2 spike RBD and on human ACE2 were 15.5 ± 1.14 µM and 3.67 ± 0.66 µM, respectively. Moreover, the “CC0 (maximum nontoxic concentration)” value with HEK-293T-ACE2h cells was determined as 125 µM. Moreover, the “TC50 (concentration that caused 50% cells' death)” value in the data set on HEK-293T-ACE2h cells was 276.90 ± 13.45 µM.
As for `N#Cc1ccc2nc(-c3ccccc3)c(-c3ccccc3)nc2c1` [4ae, 2,3-Diphenylquinoxaline-6-carbonitrile], the IC50 in the data set on A549, in the data set on T47D, in the data set on MDA-MB-231 and in the data set with MCF-7 was above 50 µM throughout. The “CC0 (maximum nontoxic concentration)” value in the data set on HEK-293T-ACE2h cells is 125 µM. For the same compound, in the data set on HEK-293T-ACE2h cells, the “TC50 (concentration that caused 50% cells' death)” value came to 303.27 ± 9.51 µM.
In the case of `c1ccc(-c2nc3cc4ccccc4cc3nc2-c2ccccc2)cc1` [4ag, 2,3-Diphenylbenzo[g]quinoxaline], the IC50 with A549 was 44.5 ± 3.55 µM; in the data set on T47D, 20.5 ± 1.64 µM; with MDA-MB-231, 45 ± 1.57 µM; in the data set on MCF-7 it was above 50 µM. In the data set on HEK-293T-ACE2h cells, the “CC0 (maximum nontoxic concentration)” value worked out at 50 µM. For the same compound, the “TC50 (concentration that caused 50% cells' death)” value with HEK-293T-ACE2h cells turned out to be 107.20 ± 1.64 µM.
In the case of `Cc1ccc(-c2nc3ccccc3nc2-c2ccccc2)cc1` [4ba, 2-Phenyl-3-(p-tolyl)quinoxaline], the IC50 was 24.1 ± 1.11 µM in the data set with A549; 9.76 ± 1.3 µM in the data set on T47D; 21.4 ± 1.19 µM in the data set on MDA-MB-231; 15.7 ± 1.18 µM in the data set on MCF-7; 6.25 to 28.6 µM in [2]. Besides, the “CC0 (maximum nontoxic concentration)” value in the data set on HEK-293T-ACE2h cells was 125 µM. In addition, the “TC50 (concentration that caused 50% cells' death)” value in the data set with HEK-293T-ACE2h cells is 271.67 ± 13.00 µM.
On to `c1ccc(-c2ccc(-c3nc4ccccc4nc3-c3ccccc3)cc2)cc1` [4ha, 2-([1,1′-Biphenyl]-4-yl)-3-phenylquinoxaline], for which the concentration for half-maximal inhibition (IC50) with A549, in the data set on T47D, with MDA-MB-231 and in the data set on MCF-7 was above 50 µM in each case. Moreover, the “SI (selectivity index, TC50/IC50)” value in [1] is listed as above 3.50. The equilibrium dissociation constant (Kd) amounted to 135 ± 17.7 µM on SARS-CoV-2 spike RBD and 238 ± 57.3 µM on human ACE2. In addition, in the data set with HEK-293T-ACE2h cells, the “CC0 (maximum nontoxic concentration)” value was above 250 µM. In the data set with HEK-293T-ACE2h cells, the “TC50 (concentration that caused 50% cells' death)” value is above 500 µM.
Take `COc1ccc2cc3[n+](cc2c1OC)CCc1cc2c(cc1-3)OCO2` [berberine, reference compound]: the IC50 was determined as 5.22 ± 0.44 µM with A549, 26.7 ± 2.45 µM in the data set on T47D, 18 ± 1.91 µM with MDA-MB-231 and 14.3 ± 1.44 µM with MCF-7.
Regarding `Fc1ccc(-c2nc3ccccc3nc2-c2ccccc2)cc1` [4ka, 2-(4-Fluorophenyl)-3-phenylquinoxaline], in the data set on HEK-293T-ACE2h cells, the “CC0 (maximum nontoxic concentration)” value came out at 25 µM and the “TC50 (concentration that caused 50% cells' death)” value was above 100 µM.
As for `Cc1ccc2nc(-c3ccccc3)c(-c3ccccc3)nc2c1` [4ab, 6-Methyl-2,3-diphenylquinoxaline], the IC50 with A549 was 19.7 ± 1.28 µM; with T47D, 6.77 ± 0.57 µM; in the data set on MDA-MB-231 it was 18.2 ± 1.34 µM; in the data set with MCF-7, 10 ± 0.55 µM; in [2] it was 6.25 to 28.6 µM. Besides, in the data set with T47D, the “cytotoxic effect, fold more potent than berberine” value is reported as 3.94 fold. Further, the “CC0 (maximum nontoxic concentration)” value with HEK-293T-ACE2h cells stood at 62.5 µM. The “TC50 (concentration that caused 50% cells' death)” value in the data set with HEK-293T-ACE2h cells is 288.40 ± 17.65 µM.
As for `C=CCc1cc(-c2cc(CC=C)c3oc(=O)n(Cc4nnc(-c5ccc(OC)cc5)o4)c3c2)c2oc(=O)n(Cc3nnc(-c4ccc(OC)cc4)o3)c2c1` [6p, 5′,7-Diallyl-3,3′-bis((5-(4-methoxyphenyl)-1,3,4-oxadiazol-2-yl)methyl)-[5,7′-bibenzo[d]oxazole]-2,2′(3H,3′H)-dione, reference compound], in data set [1], the “SI (selectivity index, TC50/IC50)” value was above 8.40. Further, in the data set on HEK-293T-ACE2h cells, the “CC0 (maximum nontoxic concentration)” value was above 100 µM and the “TC50 (concentration that caused 50% cells' death)” value was above 100 µM.
On to `COc1ccc2nc(-c3ccccc3)c(-c3ccccc3)nc2c1` [4ac, 6-Methoxy-2,3-diphenylquinoxaline], for which the IC50 in the data set on A549, in the data set with T47D, in the data set on MDA-MB-231 and in the data set on MCF-7 was above 50 µM in each case. Besides, in the data set on HEK-293T-ACE2h cells, the “CC0 (maximum nontoxic concentration)” value was 50 µM. The “TC50 (concentration that caused 50% cells' death)” value with HEK-293T-ACE2h cells came out at 116.03 ± 4.28 µM.
Regarding `Clc1ccc(-c2nc3ccccc3nc2-c2ccccc2)cc1` [4ia, 2-(4-Chlorophenyl)-3-phenylquinoxaline], the IC50 is 18.6 ± 0.25 µM in the data set with A549; 6.25 ± 0.73 µM with T47D; 17.8 ± 0.69 µM in the data set on MDA-MB-231; 7.3 ± 1.1 µM in the data set on MCF-7; 6.25 to 28.6 µM in data set [2]. Further, the “cytotoxic effect, fold more potent than berberine” value with T47D turned out to be 4.27 fold; in the data set with MCF-7 (MCF-7 cells, versus positive control berberine), 1.96 fold. Besides, the “CC0 (maximum nontoxic concentration)” value in the data set on HEK-293T-ACE2h cells stood at 25 µM. Moreover, in the data set with HEK-293T-ACE2h cells, the “TC50 (concentration that caused 50% cells' death)” value amounted to 115.20 ± 9.72 µM.
